Data set [1] addresses T1, Histone-lysine N-methyltransferase EHMT2 (Homo sapiens) (UniProt Q96KQ7).
T1 sequence (whole entry): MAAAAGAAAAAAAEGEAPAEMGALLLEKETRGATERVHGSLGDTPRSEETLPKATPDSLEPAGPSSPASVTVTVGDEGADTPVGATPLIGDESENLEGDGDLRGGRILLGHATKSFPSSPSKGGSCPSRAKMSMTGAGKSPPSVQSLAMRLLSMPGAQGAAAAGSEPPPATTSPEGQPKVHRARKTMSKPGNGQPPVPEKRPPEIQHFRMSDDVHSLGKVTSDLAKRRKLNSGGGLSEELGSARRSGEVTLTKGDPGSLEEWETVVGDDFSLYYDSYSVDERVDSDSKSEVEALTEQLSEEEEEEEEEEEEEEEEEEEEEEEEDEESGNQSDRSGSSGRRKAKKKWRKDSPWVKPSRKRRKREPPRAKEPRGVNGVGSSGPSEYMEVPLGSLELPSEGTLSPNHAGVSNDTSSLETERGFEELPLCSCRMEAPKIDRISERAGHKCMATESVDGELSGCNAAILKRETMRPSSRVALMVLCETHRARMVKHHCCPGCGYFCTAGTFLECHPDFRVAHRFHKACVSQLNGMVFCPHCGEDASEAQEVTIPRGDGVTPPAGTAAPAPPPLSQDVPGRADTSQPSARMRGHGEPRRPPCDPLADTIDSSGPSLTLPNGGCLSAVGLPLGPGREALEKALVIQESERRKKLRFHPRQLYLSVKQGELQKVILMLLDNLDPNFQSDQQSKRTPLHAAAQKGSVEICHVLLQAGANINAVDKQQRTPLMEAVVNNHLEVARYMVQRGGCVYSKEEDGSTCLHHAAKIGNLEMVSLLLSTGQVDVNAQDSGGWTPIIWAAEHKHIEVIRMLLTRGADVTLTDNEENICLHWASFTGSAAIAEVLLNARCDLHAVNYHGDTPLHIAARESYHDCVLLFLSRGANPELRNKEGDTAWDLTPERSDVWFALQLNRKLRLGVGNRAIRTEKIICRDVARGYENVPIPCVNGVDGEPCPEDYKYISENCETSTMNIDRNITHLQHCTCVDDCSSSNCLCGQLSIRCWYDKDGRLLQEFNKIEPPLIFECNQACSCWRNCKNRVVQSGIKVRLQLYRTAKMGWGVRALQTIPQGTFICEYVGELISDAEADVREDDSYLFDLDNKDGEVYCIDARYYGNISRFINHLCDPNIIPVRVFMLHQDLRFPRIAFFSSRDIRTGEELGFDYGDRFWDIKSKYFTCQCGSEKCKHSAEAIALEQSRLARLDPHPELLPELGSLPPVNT
Briefly: Binding affinity to G9a (unknown origin) assessed as binding constant K(on) by SPR analysis.

For data set [2], the target named is T2, Histone-lysine N-methyltransferase EHMT2 (Homo sapiens, UniProt Q96KQ7).
T2 sequence (Q96KQ7 whole entry): T1 sequence (whole entry)
The experiment in a line: Binding affinity to G9a (unknown origin) assessed as dissociation constant by SPR analysis. In general terms: SPR reads the build-up and loss of mass on a sensor chip optically.

In data set [3] the target is T1, Histone-lysine N-methyltransferase EHMT2 (Homo sapiens). Briefly: Binding affinity to G9a (unknown origin) assessed as binding constant K(off) by SPR analysis.
The nature of data set [4]: Metabolic stability in human liver microsomes assessed as compound remaining measured after 30 mins. The data set is classed as ADME, Microsome. The following applies: read-out: Stability.
Data set [5] can be described thus: Metabolic stability in mouse liver microsomes assessed as compound remaining measured after 60 mins. The format is ADME, Microsome. The following applies: read-out: Stability. In general terms: Liver microsomes are vesicles of endoplasmic reticulum, rich in cytochrome P450 enzymes.
A short description of data set [6]: Aqueous solubility of compound at pH 7.4. The data set is classed as physicochemical.
Data set [7] is described as follows: Metabolic stability in human liver microsomes assessed as compound remaining measured after 60 mins. The data set is classed as ADME, Microsome. The following applies: read-out: Stability.
A short description of data set [8]: Permeability of compound by PAMPA. The data set is classed as ADME. The conditions noted are these: read-out: permeability.
Data set [9] is described as follows: Metabolic stability in mouse liver microsomes assessed as compound remaining measured after 30 mins. The data set is classed as ADME, Microsome. The conditions noted are these: read-out: Stability.
The target in data set [10] is T2, Histone-lysine N-methyltransferase EHMT2. The experiment in a line: Inhibition of G9a (unknown origin).
For data set [11], the system named is HUDEP-2. Briefly: Induction of gamma-globin mRNA expression in human HUDEP-2 cells assessed as expression shift from adult-type beta-globin to fetal-type gamma-globin upto 1 uM by […] analysis. The data set is classed as functional, cell-based.

pIC50, pKd: −log10 of the molar value. ≈ marks a conversion by molar mass, not a printed value. Calls of active or inactive are those of the source. The calls are words filed in the database; no cut-off is given here.

Experimental findings from ChEMBL document CHEMBL5579841, “Structure-based development of novel substrate-type G9a inhibitors as epigenetic modulators for sickle cell disease treatment” (Bioorg Med Chem Lett, 2024) are described below.

Usually pKd stands for the negative decadic logarithm of the Kd, by convention in mol/L. For orientation: solubility means the dissolved amount per volume that the medium holds. The low end stands for little dissolved substance, the high end for much dissolved substance. What is called pIC50 is the negative decadic logarithm of the IC50, by convention in mol/L. High values mean a small IC50, low ones a large IC50.

For the compound `Cc1c(C(=O)N[C@@H](CCC2CC2)C(=O)Nc2ccc(C#N)cc2)[nH]c2c1C(=O)CC(C)(C)C2`, the K in data set [1] came to 16000 M⁻¹ s⁻¹; in data set [3] it was 0.012 s⁻¹. The pKd in data set [2] was 6.12.
For `CCCC[C@H](NC(=O)c1[nH]c2c(c1C)C(=O)CC(C)(C)C2)C(=O)Nc1ccccc1`, the remaining at 0.5 h in [4] turned out to be 22%; in data set [9], 11%. Further, the remaining at 1 h in data set [5] was 1.1%; in [7], 10%. Moreover, the solubility in data set [6] is 7 µM (≈ 2.87 µg/mL). The Papp in [8] is 35.9 ×10⁻⁶ cm/s.
As for `CCCC[C@H](NC(=O)c1[nH]c2c(c1C)C(=O)CC(C)(C)C2)C(=O)Nc1ccc(OC2CCN(C)CC2)nc1`, the remaining at 0.5 h was 80% in data set [4] and 72% in [9]. Further, the remaining at 1 h in data set [5] came out at 53%; in data set [7], 62%. Besides, the solubility in data set [6] was found to be 200 µM (≈ 105 µg/mL). The K in [1] came out at 79000 M⁻¹ s⁻¹; in [3], 0.013 s⁻¹. Moreover, the pKd in data set [2] is 6.77. Moreover, the Papp in data set [8] amounted to 8.1 ×10⁻⁶ cm/s. For the same compound, the negative-log IC50 (pIC50) in [10] is 7.36.
As to `CCCC[C@H](NC(=O)c1[nH]c2c(c1C)C(=O)CC(C)(C)C2)C(=O)NCc1ccc(CN(C)C)cc1`, the remaining at 0.5 h in [4] came to 52%; in data set [9], 78%. The results for the remaining at 1 h in data set [5] and in data set [7] were 65% and 30%, respectively. In data set [6], this compound returned a solubility of 201 µM (≈ 96.6 µg/mL). Besides, the Papp in data set [8] turned out to be 7.2 ×10⁻⁶ cm/s. Moreover, the pIC50 in [10] was 8.05.
Turning to `CCCC[C@H](NC(=O)c1[nH]c2c(c1C)C(=O)CC(C)(C)C2)C(=O)Nc1ccc(OC2CCN(C)CC2)cc1`, the remaining at 0.5 h in data set [4] was 57%; in data set [9], 72%. The values for the remaining at 1 h in [5] and in data set [7] were 58% and 37%, respectively. Also, the outcome in data set [11] was Active. In data set [6], this compound had a solubility of 200 µM (≈ 105 µg/mL). Also, the K in [1] worked out at 110000 M⁻¹ s⁻¹; in [3] it was 0.013 s⁻¹. Also, the negative-log Kd (pKd) in [2] was 6.92. The Papp in data set [8] came out at 9.3 ×10⁻⁶ cm/s. In data set [10], this compound gave a pIC50 of 7.62.
In [6], `CCCCC(NC(=O)c1[nH]c2c(c1C)C(=O)CC(C)(C)C2)C(=O)Nc1ccccc1` (racemic) came in with a solubility of 20 µM (≈ 8.19 µg/mL). Moreover, the pIC50 in [10] was 5.89.
`CCCCC(NC(=O)c1[nH]c2c(c1C)C(=O)CC(C)(C)C2)C(=O)Nc1cccnc1` (racemic) came in with a solubility in [6] above 200 µM. Also, the Papp in data set [8] is 29 ×10⁻⁶ cm/s.
As for `CCCCC(NC(=O)c1[nH]c2c(c1C)C(=O)CC(C)(C)C2)C(=O)Nc1ccc(OCCN(C)C)nc1` (racemic), the solubility in data set [6] was above 200 µM. The Papp in data set [8] was found to be 3.6 ×10⁻⁶ cm/s. In data set [10], this compound had a pIC50 of 6.96.
Compound `CCCCC(NC(=O)c1[nH]c2c(c1C)C(=O)CC(C)(C)C2)C(=O)Nc1ccc(CCN2CCOCC2)cc1` (racemic) returned a solubility in [6] of 14 µM (≈ 7.32 µg/mL). The negative logarithm of the IC50 (pIC50) in data set [10] was 6.00.
`CCCCC(NC(=O)c1[nH]c2c(c1C)C(=O)CC(C)(C)C2)C(=O)Nc1ccc(CCN2CCCCC2)cc1` (racemic) displayed a solubility in [6] of 197 µM (≈ 103 µg/mL). The Papp in [8] turned out to be 6.3 ×10⁻⁶ cm/s. The pIC50 in data set [10] was 7.38.
The like results for `CCCCC(NC(=O)c1[nH]c2c(c1C)C(=O)CC(C)(C)C2)C(=O)NCc1ccc(CN(C)C)cc1` (racemic) were, in that order, above 200 µM, 9.5 ×10⁻⁶ cm/s and 7.92.
The corresponding values for `CCCCC(NC(=O)c1[nH]c2c(c1C)C(=O)CC(C)(C)C2)C(=O)Nc1ccc(OC2CCN(C)CC2)cc1` (racemic) are 192 µM (≈ 100 µg/mL), 5.9 ×10⁻⁶ cm/s and 7.66.
On to `CCCCC(NC(=O)c1[nH]c2c(c1C)C(=O)CC(C)(C)C2)C(=O)NCc1ccccc1` (racemic), for which, in [6], the concentration in solution (solubility) came to 2.5 µM (≈ 1.06 µg/mL). Moreover, the pIC50 in data set [10] was 6.48.
Regarding `CCCCC(NC(=O)c1[nH]c2c(c1C)C(=O)CC(C)(C)C2)C(=O)Nc1ccc(CCN2CCS(=O)(=O)CC2)cc1` (racemic), the concentration in solution in data set [6] (solubility) came to 37 µM (≈ 21.1 µg/mL). Further, in data set [8], the Papp was 2.12 ×10⁻⁶ cm/s. In data set [10], the pIC50 was 5.55.
The like results for `CCCCC(NC(=O)c1[nH]c2c(c1C)C(=O)CC(C)(C)C2)C(=O)Nc1ccc(CN2CCCC2)cc1` (racemic) were, in that order, 189 µM (≈ 93.1 µg/mL), 12.7 ×10⁻⁶ cm/s and 7.36.
In data set [6], `CCCCC(NC(=O)c1[nH]c2c(c1C)C(=O)CC(C)(C)C2)C(=O)Nc1ccc(OCCN)nc1` (racemic) came in with a solubility above 200 µM. Moreover, the Papp in data set [8] is 0.4 ×10⁻⁶ cm/s. Besides, the pIC50 in data set [10] is 7.13.
The compound `CCCCC(NC(=O)c1[nH]c2c(c1C)C(=O)CC(C)(C)C2)C(=O)Nc1ccc(CN2CCC(F)(F)CC2)cc1` (racemic) displayed a solubility in [6] of 5.7 µM (≈ 3.09 µg/mL). Also, the pIC50 in [10] is 6.03.
As for `CCCCC(NC(=O)c1[nH]c2c(c1C)C(=O)CC(C)(C)C2)C(=O)Nc1ccc(OC2CCN(C)CC2)nc1` (racemic), the solubility in data set [6] was above 200 µM. Besides, the Papp in data set [8] is 4.9 ×10⁻⁶ cm/s. This compound also gave a negative logarithm of the IC50 (pIC50) in data set [10] of 7.19.
Consider `CCCCC(NC(=O)c1[nH]c2c(c1C)C(=O)CC(C)(C)C2)C(=O)Nc1ccc(OCCNC)nc1` (racemic), for which the solubility in [6] is above 200 µM. Also, the Papp in [8] is 0.07 ×10⁻⁶ cm/s. This compound also gave a negative logarithm of the IC50 (pIC50) in [10] of 7.23.
In data set [6], `CCCCC(NC(=O)c1[nH]c2c(c1C)C(=O)CC(C)(C)C2)C(=O)Nc1ccc(CCN2CCC(F)(F)CC2)cc1` (racemic) displayed a solubility of 2.3 µM (≈ 1.28 µg/mL). The compound also gave a pIC50 in data set [10] of 5.80.
For `CCCCC(NC(=O)c1[nH]c2c(c1C)C(=O)CC(C)(C)C2)C(=O)Nc1ccc(CN(C)C)cc1` (racemic), in data set [10], the negative-log IC50 (pIC50) was 7.38.
